Measured values published in patent publication US12577217B2, “15-PGDH inhibitor” (KYORIN Pharmaceutical Co., Ltd., priority 2019, dated 2026).

Target: T1, recombinant human 15-PGDH (Homo sapiens, UniProt P15428)
T1 construct: purchased R&D Systems
T1 sequence (P15428 1-266): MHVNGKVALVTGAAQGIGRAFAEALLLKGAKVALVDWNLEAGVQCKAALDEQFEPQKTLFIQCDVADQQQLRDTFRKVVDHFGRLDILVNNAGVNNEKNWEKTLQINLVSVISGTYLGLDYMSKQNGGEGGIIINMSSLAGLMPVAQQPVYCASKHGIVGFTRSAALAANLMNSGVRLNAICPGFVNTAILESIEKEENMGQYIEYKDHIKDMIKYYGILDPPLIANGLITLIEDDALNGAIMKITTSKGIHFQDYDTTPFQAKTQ
Test: 15-PGDH enzyme inhibition test
Type: biochemical
Settings: 4 nM recombinant human 15-PGDH, 30 μM PGE2, 1 mM NAD+, 60 minutes after starting the reaction; read-out: IC50 Value
Method in brief: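 4 nM recombinant human enzyme pre-incubated with compound 12 min at room temperature in 50 mM Tris-HCl pH 8.0 with 0.01% Tween 20 and 0.01% bovine gamma globulin. Reaction started with 30 μM PGE2 and 1 mM NAD+, read after 60 min by fluorescence (ex 340/em 440 nm). IC50 from concentration-response curve.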

SMILES | IC50 [nM]
CCC1CCCN(C(=O)c2cnc3c(c2)OCCN3c2ccn3c(=O)n(C)nc3c2)C1 (stereo not shown) [Example 8-43] | < 10
O=C(O)c1ccc(N2CCOc3cc(C(=O)N4CCCCC4)cnc32)cc1Cl [Example 4-17] | < 10
CCn1nc2cc(N3CCCc4cc(C(=O)N5CC=CCC5)cnc43)ccn2c1=O [Example 8-154] | < 10
CCn1nc2cc(N3CCOc4cc(C(=O)N5CCN(C)C(=O)C5)cnc43)ccn2c1=O [Example 8-221] | > 100
CC(C)(NS(C)(=O)=O)c1ccc(N2CCOc3cc(C(=O)N4CCCCC4)cnc32)cc1 [Example 31-2] | > 100
CNC(=O)c1ccc(N2CCCc3cc(C(=O)N4CCCCC4)cnc32)cc1 [Example 1-204] | < 10
Cn1nc2cc(N3CCN(c4ccc(C#N)cc4)c4cc(C(=O)N5CCC(F)(F)CC5)cnc43)ccn2c1=O [Example 30-2] | 10 to 100
CC1CCN(C(=O)c2cnc3c(c2)CCCN3c2ccn3c(=O)n(C)nc3c2)CC1 [Example 8-136] | < 10
CC(C)(O)Cn1nc2cc(N3CCOc4cc(C(=O)N5CCCCC5)cnc43)ccn2c1=O [Example 15-1, 2-(2-Hydroxy-2-methylpropyl)-7-(7-(piperidine-1-carbonyl)-2,3-dihydro-4H-pyrido[3,2-b][1,4]oxazin-4-yl)-[1,2,4]triazolo[4,3-a]pyridin-3(2H)-one] | < 10
Cn1nc2cc(N3CCOc4cc(C(=O)N5CC6CCC6C5)cnc43)ccn2c1=O (stereo not shown) [Example 8-97] | < 10
Cn1nc2cc(N3CCCc4cc(C(=O)N5CCC[C@@H](F)C5)cnc43)ccn2c1=O [Example 8-137] | < 10
CNC(=O)c1ccc(N2CCCc3cc(C(=O)N4CCC(F)(F)CC4)cnc32)cc1F [Example 1-175] | < 10
O=C(O)c1ccc(N2CCC[S+]([O-])c3cc(C(=O)N4CCCCC4)ccc32)cc1 (stereo not shown) [Example 2-19] | > 100
CC(C)n1nc2cc(N3CCOc4cc(C(=O)N5CCCCC5)cnc43)ccn2c1=O [Example 1-27] | < 10
C[C@H]1CCCCN1C(=O)c1cnc2c(c1)OCCN2c1ccn2c(=O)n(C)nc2c1 [Example 8-28] | < 10
O=C(c1ccc2c(c1)OCCN2c1ccc(-c2nnn[nH]2)cc1)N1CCC(F)(F)CC1 [Example 3-1, (4-(4-(1H-Tetrazol-5-yl)phenyl)-3,4-dihydro-2H-benzo[b][1,4]oxazin-7-yl)(4,4-difluoropiperidin-1-yl)methanone] | < 10
CCn1nc2cc(N3CCCc4cc(C(=O)N5Cc6ccccc6C5)cnc43)ccn2c1=O [Example 8-156] | < 10
CCCn1nc2cc(N3CCOc4cc(C(=O)N5CCCCC5)cnc43)ccn2c1=O [Example 1-215] | < 10
CN1C(=O)c2ccc(N3CCOc4cc(C(=O)N5CCCCC5)cnc43)cc2C1=O [Example 1-166] | < 10
O=C1NCc2cc(N3CCOc4cc(C(=O)N5CCCCC5)cnc43)ncc21 [Example 14-9] | < 10
CCn1nc2cc(N3CCOc4cc(C(=O)N5CC=CCC5)cnc43)ccn2c1=O [Example 8-217] | < 10
CCCCN1Cc2cc(N3CCOc4cc(C(=O)N5CCCCC5)cnc43)ccc2C1=O [Example 1-223] | < 10
CCn1nc2cc(N3CCCc4cc(C(=O)N5CCC[C@@H](C(F)(F)F)C5)cnc43)ccn2c1=O [Example 8-170] | 10 to 100
Cn1nc2cc(N3CCOc4cc(C(=O)N5C[C@H](O)C[C@H](O)C5)cnc43)ccn2c1=O [Example 8-108] | 10 to 100

SMILES | IC50 [nM]
CN1Cc2cc(N3CCCc4cc(C(=O)N5CCCCC5)cnc43)cnc2C1=O [Example 1-67] | < 10
Cn1nc2cc(N3CCOc4cc(C(=O)N5CCC[C@@H]5C(=O)OC(C)(C)C)cnc43)ccn2c1=O [Example 8-228] | > 100
O=C(O)c1ccc(N2CCOc3cc(C(=O)N4CCCCC4)cnc32)cc1F [Example 20-1, 2-Fluoro-4-(7-(piperidine-1-carbonyl)-2,3-dihydro-4H-pyrido[3,2-b][1,4]oxazin-4-yl)benzoic Acid] | < 10
COCn1nc2cc(N3CCCc4cc(C(=O)N5CCC(F)(F)C(C)C5)cnc43)ccn2c1=O (stereo not shown) [Example 8-117] | < 10
Cn1nc2cc(N3CCCCc4cc(C(=O)N5CCCCC5)cnc43)ccn2c1=O [Example 1-107] | < 10
O=C1NCc2cc(N3CCCc4cc(C(=O)N5CCCCC5)cnc43)ccc21 [Example 14-4] | < 10
O=C(c1cnc2c(c1)CCCN2c1cc2c(cn1)C(=O)N(C1COC1)C2)N1CCC(F)(F)CC1 [Example 1-183] | 10 to 100
CC1c2cc(N3CCOc4cc(C(=O)N5CCCCC5)cnc43)ccc2C(=O)N1C (single isomer, unassigned) [16-1 Isomer A] | < 10
O=C(c1cnc2c(c1)OCCN2c1ccc(Br)cc1)N1CCCCC1 [Example 1-243] | 10 to 100
O=C(c1cnc2c(c1)OCCN2c1ccn2c(=O)n(Cc3ccc(F)cc3F)nc2c1)N1CCC(F)(F)CC1 [Example 27-5] | < 10
C[C@@H]1CCN(C(=O)c2cnc3c(c2)OCCN3c2ccn3c(=O)n(C)nc3c2)C1 [Example 8-32] | < 10
O=C(c1cnc2c(c1)OCCN2c1ccc2c(=O)[nH]oc2c1)N1CCCCC1 [Example 14-1] | < 10
O=C(c1cnc2c(c1)CCCN2c1ccccc1)N1CCCCC1 [Example 1-199] | 10 to 100
CN1Cc2cc(N3CCOc4cc(C(=O)N5CCCCC5)cnc43)ccc2C1=O [Example 1-23] | < 10
COCCCNC(=O)c1cnc2c(c1)OCCN2c1ccn2c(=O)n(C)nc2c1 [Example 8-107] | < 10
CC(C)(N)c1ccc(N2CCOc3cc(C(=O)N4CCCCC4)cnc32)cc1 [Example 1-246] | > 100
Cn1nc2cc(N3CCOc4cc(C(=O)N5CCCC(C)(F)C5)cnc43)ccn2c1=O (single isomer, unassigned) [23-2 Isomer A] | < 10
C[C@H]1CCCN(C(=O)c2cnc3c(c2)OCCCN3c2ccn3c(=O)n(C)nc3c2)C1 [Example 8-61] | < 10
Cn1nnc(-c2ccc(N3CCCc4cc(C(=O)N5CCCCC5)cnc43)cc2)n1 [Example 1-201] | < 10
Cn1cnc2cc(N3CCOc4cc(C(=O)N5CCC(F)(F)CC5)ccc43)ccc2c1=O [Example 1-153] | < 10
O=C(O)c1ccc(N2CCOc3cc(C(=O)N4CCCCC4)ccc32)nc1 [Example 2-21] | < 10
Cn1ncc2cc(N3CCCc4cc(C(=O)N5CCC(F)(F)CC5)cnc43)ccc2c1=O [Example 1-189] | < 10
Cn1nc2cc(N3CCOc4cc(C(=O)N5CCCC5)cnc43)ccn2c1=O [Example 8-20] | < 10
CCN1Cc2cc(N3CCCc4cc(C(=O)N5CCC(F)CC5)cnc43)ccc2C1=O [Example 8-86] | < 10

SMILES | IC50 [nM]
CCOCn1nc2cc(N3CCOc4cc(C(=O)N5CCCCC5)cnc43)ccn2c1=O [Example 1-268] | < 10
CCOc1noc2cc(N3CCOc4cc(C(=O)N5CCC(F)(F)CC5)cnc43)ccc12 [Example 8-216] | < 10
O=C(c1cnc2c(c1)OCCN2c1ccc2c(=O)[nH]ncc2c1)N1CCCCC1 [Example 14-8] | < 10
CCCCn1nc2cc(N3CCOc4cc(C(=O)N5CCCCC5)cnc43)ccn2c1=O [Example 1-216] | < 10
COCCN1Cc2cc(N3CCCc4cc(C(=O)N5CCCCC5)cnc43)ccc2C1=O [Example 1-64] | < 10
O=C(O)c1ccccc1N1CCc2cc(C(=O)N3CCCCC3)ccc21 [Example 2-28] | > 100
CCn1nc2cc(N3CCCc4cc(C(=O)N5CCC[C@H](F)C5)cnc43)ccn2c1=O [Example 8-163] | < 10
Cn1nc2cc(N3CCCc4cc(C(=O)N5CCC[C@@H](C(F)F)C5)cnc43)ccn2c1=O [Example 8-142] | < 10
CN1Cc2cc(N3CCOc4cc(C(=O)N5CCC[C@@H](C(F)F)C5)cnc43)ccc2C1=O [Example 8-205] | < 10
COCCn1nc2cc(N3CCCc4cc(C(=O)N5CCC(F)(F)CC5)cnc43)ccn2c1=O [Example 1-78] | < 10
CN1CCN(c2ccn3c(=O)n(C)nc3c2)c2ncc(C(=O)N3CCC(F)(F)CC3)cc21 [Example 29-4] | < 10
CCOCCN1Cc2cc(N3CCOc4cc(C(=O)N5CCC(F)(F)CC5)cnc43)ccc2C1=O [Example 1-50] | < 10
CCN1Cc2cc(N3CCCc4cc(C(=O)N5CCC(F)(F)C(C)C5)cnc43)ccc2C1=O (stereo not shown) [Example 8-82] | < 10
CCN1Cc2cc(N3CCCc4cc(C(=O)N5CCCCCC5)cnc43)ccc2C1=O [Example 8-70] | < 10
Cn1nc2cc(N3CCOc4cc(S(=O)(=O)C5CCCCC5)cnc43)ccn2c1=O [Example 7-6] | > 100
CCn1nc2cc(N3CCCc4cc(C(=O)N5CCOCC5)cnc43)ccn2c1=O [Example 8-151] | 10 to 100
O=C(O)c1ccc(N2CCOc3c2ccc(C(=O)N2CCCCC2)c3Cl)cc1 [Example 2-4] | < 10
CCN1Cc2cc(N3CCCc4cc(C(=O)N5CCN(C)CC5)cnc43)ccc2C1=O [Example 8-73] | < 10
CCn1nc2cc(N3CCCc4cc(C(=O)N5CCCC(C)(F)C5)cnc43)ccn2c1=O (stereo not shown) [Example 8-166] | < 10
Cn1nc2cc(N3CCOc4cc(C(=O)N5CCC(F)(F)CC5)ccc43)ccn2c1=O [Example 1-147] | < 10
CCN1Cc2cc(N3CCCc4cc(C(=O)N5CCC[C@@H](CF)C5)cnc43)ccc2C1=O [Example 8-91] | < 10
Cn1nc2cc(N3CCCc4cc(C(=O)N5CCCCCCC5)cnc43)ccn2c1=O [Example 8-125] | < 10
